Results as given in PubChem BioAssay (NCI).
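Compound exposure: 48 hours, 5 concentrations, 96-well plates. GI50 marks 50% less growth. TGI denotes the concentration required for complete inhibition of growth.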

What was measured:
Assay in all cases: NCI-60 cell line screen, 48 h
SK-MEL-2 melanoma = system: SK-MEL-2 melanoma
T-47D breast = system: T-47D breast
HT29 colon = system: HT29 colon
ACHN renal = system: ACHN renal
OVCAR-5 ovarian = system: OVCAR-5 ovarian
RXF 393 renal = system: RXF 393 renal
MALME-3M melanoma = system: MALME-3M melanoma
TK-10 renal = system: TK-10 renal
UACC-257 melanoma = system: UACC-257 melanoma
M14 melanoma = system: M14 melanoma

Compound	GI50 (SK-MEL-2 melanoma)	TGI (SK-MEL-2 melanoma)	GI50 (T-47D breast)	TGI (T-47D breast)	GI50 (HT29 colon)	TGI (HT29 colon)	GI50 (ACHN renal)	TGI (ACHN renal)	GI50 (OVCAR-5 ovarian)	TGI (OVCAR-5 ovarian)	GI50 (RXF 393 renal)	TGI (RXF 393 renal)	GI50 (MALME-3M melanoma)	TGI (MALME-3M melanoma)	GI50 (TK-10 renal)	TGI (TK-10 renal)	GI50 (UACC-257 melanoma)	TGI (UACC-257 melanoma)	GI50 (M14 melanoma)	TGI (M14 melanoma)
COc1cccc(-c2nc(-c3ccc(NS(=O)(=O)c4ccccc4)cc3)[nH]c2-c2ccnc(Br)c2)c1	2.5 µM	6.62 µM	2.74 µM	> 100 µM	3.02 µM	> 100 µM	2.6 µM	> 100 µM	4.17 µM	> 100 µM	2.18 µM	5.73 µM	1.76 µM	5.22 µM	3.72 µM	> 100 µM	3.11 µM	30.3 µM	2.03 µM	6.09 µM
CCOC(=O)Oc1c(OC)cc(C(=O)c2ccc(OC)c(OC(=O)CCl)c2OC)cc1OC	0.668 µM	60.2 µM	7.32 µM	> 100 µM	3.15 µM	18.8 µM	3.66 µM	> 100 µM	5.88 µM	> 100 µM	1.54 µM	8.08 µM	0.688 µM	79.9 µM	> 100 µM	> 100 µM	66.6 µM	> 100 µM	0.491 µM	> 100 µM
C=C1C(=O)OC2C1C(OC(=O)/C(C)=C/C)CC(O)(CCl)C1C(OC(C)=O)C=C(C)C21O (stereo not given)		32.5 µM		42.6 µM		31.9 µM		22.7 µM		31.9 µM		25 µM		14.9 µM		27.3 µM		34.1 µM		25.7 µM
COc1cc2c3c(n(CCCO)c(=O)c2cc1OC)-c1cc2c(cc1C3=O)OCO2	31.9 µM	> 100 µM	14.2 µM	> 100 µM	> 46.5 µM	> 100 µM	1.65 µM	9.83 µM	> 79.2 µM	> 100 µM	27.1 µM	> 94.6 µM	21.6 µM	> 100 µM	34.7 µM	> 100 µM	64.7 µM	> 100 µM	3.68 µM	32.8 µM
O=c1oc2ccccc2cc1-c1ccc([N+](=O)[O-])cc1		> 100 µM		> 100 µM		> 100 µM		> 100 µM		> 100 µM		> 100 µM		> 100 µM		> 100 µM		> 100 µM		> 100 µM
COC(=O)c1ccc(-c2nc3cc(F)c(F)cc3nc2C#N)cc1	14.9 µM	46.7 µM	12.8 µM	32 µM	11.1 µM	35.6 µM	11.5 µM	26.3 µM	12.1 µM	32.6 µM	8.53 µM	17.6 µM	7.64 µM	16.5 µM	17.4 µM	42.2 µM	10.2 µM	18.8 µM	8.28 µM	18.9 µM
COC(=O)/C=C1\SC(=Nc2ccc(C(F)(F)F)cc2)N(CCc2c[nH]c3ccccc23)C1=O	1.65 µM	3.43 µM	1.19 µM	3.17 µM	1.86 µM	4.56 µM	1.56 µM	2.9 µM	1.79 µM	3.38 µM	1.43 µM	2.98 µM	1.79 µM	3.3 µM	2.06 µM	3.94 µM	1.67 µM	3.18 µM	1.46 µM	2.9 µM
